test system: Weibliche Laborratten; assay: Rat feeding trial (Ratten-Fütterungsversuch); type: in vivo; details: female SPF Wistar rats 90-110 g; active substance mixed into standard rat feed ad lib; 13-day trial; compared with control group on feed without active substance
Source text: Weibliche Laborratten 90-110 g schwer vom Typ SPF Wistar (Züchtung Hagemann) werden ad lib mit Standard-Rattenfutter, das mit der gewünschten Menge Wirkstoff versetzt ist, gefüttert. Jeder Versuchsansatz wird mit Futter der identischen Charge durchgeführt, so daß Unterschiede in der Zusammensetzung des Futters die Vergleichbarkeit der Ergebnisse nicht beeinträchtigen können.
Die Ratten erhalten Wasser ad lib.
Jeweils 12 Ratten bilden eine Versuchsgruppe und werden mit Futter, das mit der gewünschten Menge Wirkstoff versetzt ist, gefüttert. Eine Kontrollgruppe erhält Futter ohne Wirkstoff. Das durchschnittliche Körpergewicht sowie die Streuung in den Körpergewichten der Ratten ist in jeder Versuchsgruppe gleich, so daß eine Vergleichbarkeit der Versuchsgruppen untereinander gewährleistet ist.
Gewichtszunahme und Futterverbrauch werden während des 13-tägigen Versuches bestimmt.

Structure (SMILES)	Gewichtszunahmen im Vergleich zur Kontrolle
COC(=O)[C@H](Cc1c[nH]c2ccccc12)NC(=O)Nc1cccc2ccccc12 [Beispiel 3]	deutliche Gewichtszunahmen
CC[C@H](C)[C@H](NC(=O)Nc1cccc2ccccc12)C(=O)O [Beispiel 2]	deutliche Gewichtszunahmen
CCOC(=O)c1c(NC(=O)N[C@@H](CCSC)C(=O)OC)sc(-c2ccccc2)c1C [Beispiel 1]	deutliche Gewichtszunahmen
